Active and inactive are the calls of the source. No cut-off for these calls is given here.

Test system in the first test: not listed separately
Kind of test: Antiproliferative activity against human HCT116 cells by MTT assay. The test is classed as functional, cell-based. The following applies: HCT-116.
`CNC(=O)c1ccc(Oc2cccc(NC(=S)Nc3ccc(F)c(F)c3)c2)nc1` registered an IC50 of 38.2 µM.
For the molecule `CNC(=O)c1ccc(Oc2cccc(NC(=S)Nc3ccc(F)c(Cl)c3)c2)nc1`, it took 25.4 µM to reach half-maximal inhibition (IC50).
`CNC(=O)c1cc(Oc2cccc(NC(=S)Nc3ccc(Cl)c(C(F)(F)F)c3)c2)ccn1` showed a half-maximal inhibitory concentration (IC50) of 14.6 µM.
As for `CNC(=O)c1ccc(Oc2cccc(NC(=S)Nc3cccc(C(F)(F)F)c3)c2)nc1`, half-maximal inhibition (IC50) was put at 36.6 µM.
Consider `CNC(=O)c1cc(Oc2ccc(NC(=O)Nc3ccc(Cl)c(C(F)(F)F)c3)cc2)ccn1` [SORAFENIB], for which the IC50 was 8.41 µM.
`CNC(=O)c1ccc(Oc2cccc(NC(=S)Nc3ccc(Cl)cc3Cl)c2)nc1` gave a 50% inhibitory concentration (IC50) of 20.9 µM.
With `CNC(=O)c1ccc(Oc2cccc(NC(=S)Nc3ccc(C)c(C)c3)c2)nc1`, the IC50 is 48.2 µM.
Consider `CNC(=O)c1ccc(Oc2cccc(NC(=S)Nc3ccc(F)cc3)c2)nc1`, for which the IC50 amounted to 39.4 µM.
The same measure, in the same setting: next, `CNC(=O)c1ccc(Oc2cccc(NC(=S)Nc3ccc(Br)c(C(F)(F)F)c3)c2)nc1`: 3.12 µM; `CNC(=O)c1ccc(Oc2cccc(NC(=S)Nc3cc(C(F)(F)F)cc(C(F)(F)F)c3)c2)nc1`: 2.5 µM; `CNC(=O)c1ccc(Oc2cccc(NC(=S)Nc3ccc(C)cc3)c2)nc1`: 53.7 µM.
In turn, `CNC(=O)c1ccc(Oc2cccc(NC(=S)Nc3ccc(Cl)c(C(F)(F)F)c3)c2)nc1` showed an IC50 of 2.21 µM.
Molecule `CNC(=O)c1ccc(Oc2cccc(NC(=S)Nc3ccc(OC)cc3)c2)nc1` returned an IC50 of 49.8 µM.
On to `CNC(=O)c1ccc(Oc2cccc(NC(=S)Nc3ccc(Cl)cc3)c2)nc1`, for which the IC50 was determined as 42.5 µM.
The molecule `CNC(=O)c1ccc(Oc2cccc(NC(=S)Nc3ccc(F)c(C(F)(F)F)c3)c2)nc1` displayed a half-maximal inhibitory concentration (IC50) of 19 µM.
In turn, `CNC(=O)c1ccc(Oc2cccc(NC(=S)Nc3ccc(OC(F)(F)F)cc3)c2)nc1` had an IC50 of 54.7 µM.

The next test has as its system MDA-MB-231. Nature of the test: Antiproliferative activity against human MDA-MB-231 cells by MTT assay. The test is classed as functional, cell-based.
Details: not given
(In general: Tetrazolium dyes change colour on reduction, which living cells bring about.)
As to `CNC(=O)c1ccc(Oc2cccc(NC(=S)Nc3ccc(F)c(F)c3)c2)nc1`, the half-maximal inhibitory concentration (IC50) was determined as 69.3 µM.
In the case of `CNC(=O)c1ccc(Oc2cccc(NC(=S)Nc3ccc(F)c(Cl)c3)c2)nc1`, half-maximal inhibition (IC50) required 28.6 µM.
For `CNC(=O)c1cc(Oc2cccc(NC(=S)Nc3ccc(Cl)c(C(F)(F)F)c3)c2)ccn1`, it took 42.4 µM to reach half-maximal inhibition (IC50).
`CNC(=O)c1ccc(Oc2cccc(NC(=S)Nc3cccc(C(F)(F)F)c3)c2)nc1` yielded an IC50 of 38.1 µM.
In turn, `CNC(=O)c1cc(Oc2ccc(NC(=O)Nc3ccc(Cl)c(C(F)(F)F)c3)cc2)ccn1` [SORAFENIB] yielded an IC50 of 17.8 µM.
`CNC(=O)c1ccc(Oc2cccc(NC(=S)Nc3ccc(Cl)cc3Cl)c2)nc1`: the IC50 was 20.7 µM.
`CNC(=O)c1ccc(Oc2cccc(NC(=S)Nc3ccc(C)c(C)c3)c2)nc1`: the IC50 worked out at 38.6 µM.
Regarding `CNC(=O)c1ccc(Oc2cccc(NC(=S)Nc3ccc(F)cc3)c2)nc1`, the IC50 is 21.7 µM.
The same measure, in the same setting: next, `CNC(=O)c1ccc(Oc2cccc(NC(=S)Nc3ccc(Br)c(C(F)(F)F)c3)c2)nc1`: 3.02 µM.
On to `CNC(=O)c1ccc(Oc2cccc(NC(=S)Nc3cc(C(F)(F)F)cc(C(F)(F)F)c3)c2)nc1`, for which inhibition was half-maximal at 2.67 µM (IC50).
Molecule `CNC(=O)c1ccc(Oc2cccc(NC(=S)Nc3ccc(C)cc3)c2)nc1` returned an IC50 of 29.5 µM.
As for `CNC(=O)c1ccc(Oc2cccc(NC(=S)Nc3ccc(Cl)c(C(F)(F)F)c3)c2)nc1`, the half-maximal inhibitory concentration (IC50) was found to be 2.33 µM.
For the molecule `CNC(=O)c1ccc(Oc2cccc(NC(=S)Nc3ccc(OC)cc3)c2)nc1`, the midpoint of inhibition, the IC50, lay at 31.5 µM.
`CNC(=O)c1ccc(Oc2cccc(NC(=S)Nc3ccc(Cl)cc3)c2)nc1` gave an IC50 of 66.5 µM.
Same read-out and setting: as for `CNC(=O)c1ccc(Oc2cccc(NC(=S)Nc3ccc(F)c(C(F)(F)F)c3)c2)nc1`, the figure is 13.3 µM; as for `CNC(=O)c1ccc(Oc2cccc(NC(=S)Nc3ccc(OC(F)(F)F)cc3)c2)nc1`, 56 µM.

Test system in another test: not listed separately
Kind of test: Antiproliferative activity against human PC3 cells by MTT assay. The test is classed as functional, cell-based. The following applies: PC-3.
`CNC(=O)c1ccc(Oc2cccc(NC(=S)Nc3ccc(F)c(F)c3)c2)nc1` displayed an IC50 of 23.1 µM.
Take `CNC(=O)c1ccc(Oc2cccc(NC(=S)Nc3ccc(F)c(Cl)c3)c2)nc1`: half-maximal inhibition (IC50) was put at 18.4 µM.
`CNC(=O)c1cc(Oc2cccc(NC(=S)Nc3ccc(Cl)c(C(F)(F)F)c3)c2)ccn1` returned a half-inhibitory concentration (IC50) of 16.4 µM.
Molecule `CNC(=O)c1ccc(Oc2cccc(NC(=S)Nc3cccc(C(F)(F)F)c3)c2)nc1` gave a half-maximal inhibitory concentration (IC50) of 15.4 µM.
The same measure, in the same setting: next, `CNC(=O)c1cc(Oc2ccc(NC(=O)Nc3ccc(Cl)c(C(F)(F)F)c3)cc2)ccn1` [SORAFENIB]: 11 µM.
In turn, `CNC(=O)c1ccc(Oc2cccc(NC(=S)Nc3ccc(Cl)cc3Cl)c2)nc1` registered an IC50 of 19.3 µM.
With `CNC(=O)c1ccc(Oc2cccc(NC(=S)Nc3ccc(C)c(C)c3)c2)nc1`, 67.4 µM corresponded to half-maximal inhibition (IC50).
In turn, `CNC(=O)c1ccc(Oc2cccc(NC(=S)Nc3ccc(F)cc3)c2)nc1` registered an IC50 of 32.7 µM.
As to `CNC(=O)c1ccc(Oc2cccc(NC(=S)Nc3ccc(Br)c(C(F)(F)F)c3)c2)nc1`, the half-inhibitory concentration (IC50) stood at 2.67 µM.
As to `CNC(=O)c1ccc(Oc2cccc(NC(=S)Nc3cc(C(F)(F)F)cc(C(F)(F)F)c3)c2)nc1`, the half-inhibitory concentration (IC50) was 5.86 µM.
The molecule `CNC(=O)c1ccc(Oc2cccc(NC(=S)Nc3ccc(C)cc3)c2)nc1` returned a 50% inhibitory concentration (IC50) above 100 µM.
As for `CNC(=O)c1ccc(Oc2cccc(NC(=S)Nc3ccc(Cl)c(C(F)(F)F)c3)c2)nc1`, the IC50 is 1.98 µM.
Same read-out and setting: as for `CNC(=O)c1ccc(Oc2cccc(NC(=S)Nc3ccc(OC)cc3)c2)nc1`, the figure is above 100 µM; as for `CNC(=O)c1ccc(Oc2cccc(NC(=S)Nc3ccc(Cl)cc3)c2)nc1`, 28.4 µM.
With `CNC(=O)c1ccc(Oc2cccc(NC(=S)Nc3ccc(F)c(C(F)(F)F)c3)c2)nc1`, the half-inhibitory concentration (IC50) was 7.95 µM.
In turn, `CNC(=O)c1ccc(Oc2cccc(NC(=S)Nc3ccc(OC(F)(F)F)cc3)c2)nc1` showed an IC50 above 100 µM.

The next test concerns HepG2. Kind of test: Antiproliferative activity against human HepG2 cells by MTT assay. The test is classed as functional, cell-based.
Details: not given
Take `CNC(=O)c1ccc(Oc2cccc(NC(=S)Nc3ccc(F)c(F)c3)c2)nc1`: the half-inhibitory concentration (IC50) came to 26.7 µM.
`CNC(=O)c1ccc(Oc2cccc(NC(=S)Nc3ccc(F)c(Cl)c3)c2)nc1`: the IC50 was above 100 µM.
The molecule `CNC(=O)c1cc(Oc2cccc(NC(=S)Nc3ccc(Cl)c(C(F)(F)F)c3)c2)ccn1` showed a 50% inhibitory concentration (IC50) of 24.9 µM.
As to `CNC(=O)c1ccc(Oc2cccc(NC(=S)Nc3cccc(C(F)(F)F)c3)c2)nc1`, half-maximal inhibition (IC50) required 23.3 µM.
`CNC(=O)c1cc(Oc2ccc(NC(=O)Nc3ccc(Cl)c(C(F)(F)F)c3)cc2)ccn1` [SORAFENIB] gave an IC50 of 10.5 µM.
On the same count and under the same terms, as for `CNC(=O)c1ccc(Oc2cccc(NC(=S)Nc3ccc(Cl)cc3Cl)c2)nc1`, the figure is 21.6 µM; as for `CNC(=O)c1ccc(Oc2cccc(NC(=S)Nc3ccc(C)c(C)c3)c2)nc1`, above 100 µM; as for `CNC(=O)c1ccc(Oc2cccc(NC(=S)Nc3ccc(F)cc3)c2)nc1`, 42.5 µM.
On the same count and under the same terms, next, `CNC(=O)c1ccc(Oc2cccc(NC(=S)Nc3ccc(Br)c(C(F)(F)F)c3)c2)nc1`: 8.53 µM.
The molecule `CNC(=O)c1ccc(Oc2cccc(NC(=S)Nc3cc(C(F)(F)F)cc(C(F)(F)F)c3)c2)nc1` yielded an IC50 of 4.55 µM.
Same read-out and setting: next, `CNC(=O)c1ccc(Oc2cccc(NC(=S)Nc3ccc(C)cc3)c2)nc1`: 65.4 µM.
`CNC(=O)c1ccc(Oc2cccc(NC(=S)Nc3ccc(Cl)c(C(F)(F)F)c3)c2)nc1`: inhibition was half-maximal at 5.35 µM (IC50).
Same read-out and setting: next, `CNC(=O)c1ccc(Oc2cccc(NC(=S)Nc3ccc(OC)cc3)c2)nc1`: 85.3 µM; `CNC(=O)c1ccc(Oc2cccc(NC(=S)Nc3ccc(Cl)cc3)c2)nc1`: 29.4 µM.
In the case of `CNC(=O)c1ccc(Oc2cccc(NC(=S)Nc3ccc(F)c(C(F)(F)F)c3)c2)nc1`, the concentration for half-maximal inhibition (IC50) was 20.2 µM.
The same measure, in the same setting: as for `CNC(=O)c1ccc(Oc2cccc(NC(=S)Nc3ccc(OC(F)(F)F)cc3)c2)nc1`, the figure is above 100 µM.

The next test has as its system HUVEC. Kind of test: Anti-angiogenic activity in human HUVEC assessed as inhibition of tube formation at 0.05 uM by matrigel assay. The test is classed as functional, cell-based.
Details: not given
Consider `CNC(=O)c1cc(Oc2ccc(NC(=O)Nc3ccc(Cl)c(C(F)(F)F)c3)cc2)ccn1` [SORAFENIB], for which the inhibition entry is “Active”.
Take `CNC(=O)c1ccc(Oc2cccc(NC(=S)Nc3cc(C(F)(F)F)cc(C(F)(F)F)c3)c2)nc1`: the inhibition entry was “Active”.
The same measure, in the same setting: as for `CNC(=O)c1ccc(Oc2cccc(NC(=S)Nc3ccc(Cl)c(C(F)(F)F)c3)c2)nc1`, the entry is “Active”.

The test system of the next test is HUVEC. Nature of the test: Anti-angiogenic activity in human HUVEC assessed as inhibition of tube formation at 0.1 uM by matrigel assay. The test is classed as functional, cell-based.
Details: not given
On to `CNC(=O)c1cc(Oc2ccc(NC(=O)Nc3ccc(Cl)c(C(F)(F)F)c3)cc2)ccn1` [SORAFENIB], for which the inhibition entry is “Active”.

Another test relates to Thoracic aorta. Kind of test: Ex-vivo anti-angiogenic activity in Sprague-Dawley rat thoracic aorta ring assessed as sprouting at 0.05 to 0.1 uM after 6 days.
Details: not given
Type of test: functional, tissue-based.
For `CNC(=O)c1ccc(Oc2cccc(NC(=S)Nc3cc(C(F)(F)F)cc(C(F)(F)F)c3)c2)nc1`, the inhibition entry was “Active”.
Same read-out and setting: as for `CNC(=O)c1ccc(Oc2cccc(NC(=S)Nc3ccc(Cl)c(C(F)(F)F)c3)c2)nc1`, the entry is “Active”.

As usually defined, the IC50 is the concentration that gives 50% inhibition. Read a high IC50 as lower potency.

The values above are taken from ChEMBL document CHEMBL3739315, “Design, synthesis and biological evaluation of thiourea and nicotinamide-containing sorafenib analogs as antitumor agents” (Medchemcomm, 2015).
